Laboratory results as given in the NIST ThermoML archive (doi:10.1021/acs.jced.5b00259).

Test: xn = mol fraction of the nth substance listed
Settings: 100 kPa, Liquid

CC[NH+]=C(N(C)C)N(C)C.O=S(=O)([N-]S(=O)(=O)C(F)(F)F)C(F)(F)F + CCCO
Settings	mass density [kg/m3]	viscosity [mPa·s]
293.15 K, x1 = 0.1024	997.39	4.462
293.15 K, x1 = 0.2019	1114.71	7.27
293.15 K, x1 = 0.2973	1192.09	10.87
293.15 K, x1 = 0.4011	1252.75	16.1
293.15 K, x1 = 0.4988	1295.36	21.63
293.15 K, x1 = 0.5962	1328.36	28.19
293.15 K, x1 = 0.6997	1356.59	36.71
293.15 K, x1 = 0.7931	1377.81	45.87
293.15 K, x1 = 0.9014	1398.72	58.37
293.15 K, x1 = 1	1414.89	74.61
298.15 K, x1 = 0.1024	992.96	3.868
298.15 K, x1 = 0.2019	1110.07	6.213
298.15 K, x1 = 0.2973	1187.4	9.224
298.15 K, x1 = 0.4011	1247.97	13.49
298.15 K, x1 = 0.4988	1290.53	18.01
298.15 K, x1 = 0.5962	1323.53	23.23
298.15 K, x1 = 0.6997	1351.73	29.87
298.15 K, x1 = 0.7931	1372.97	37.15
298.15 K, x1 = 0.9014	1393.86	46.91
298.15 K, x1 = 1	1410.03	58.86
303.15 K, x1 = 0.1024	988.5	3.38
303.15 K, x1 = 0.2019	1105.48	5.362
303.15 K, x1 = 0.2973	1182.67	7.898
303.15 K, x1 = 0.4011	1243.16	11.48
303.15 K, x1 = 0.4988	1285.7	15.21
303.15 K, x1 = 0.5962	1318.7	19.43
303.15 K, x1 = 0.6997	1346.89	24.76
303.15 K, x1 = 0.7931	1368.14	30.48
303.15 K, x1 = 0.9014	1389.02	38.17
303.15 K, x1 = 1	1405.19	47.27
308.15 K, x1 = 0.1024	984.03	2.972
308.15 K, x1 = 0.2019	1100.81	4.667
308.15 K, x1 = 0.2973	1177.93	6.831
308.15 K, x1 = 0.4011	1238.35	9.85
308.15 K, x1 = 0.4988	1280.88	12.98
308.15 K, x1 = 0.5962	1313.87	16.47
308.15 K, x1 = 0.6997	1342.09	20.85
308.15 K, x1 = 0.7931	1363.32	25.37
308.15 K, x1 = 0.9014	1384.21	31.53
308.15 K, x1 = 1	1400.38	38.71
313.15 K, x1 = 0.1024	979.55	2.63
313.15 K, x1 = 0.2019	1096.13	4.093
313.15 K, x1 = 0.2973	1173.18	5.966
313.15 K, x1 = 0.4011	1233.59	8.525
313.15 K, x1 = 0.4988	1276.07	11.21
313.15 K, x1 = 0.5962	1309.06	14.12
313.15 K, x1 = 0.6997	1337.29	17.73
313.15 K, x1 = 0.7931	1358.51	21.42
313.15 K, x1 = 0.9014	1379.42	26.43
313.15 K, x1 = 1	1395.59	32.2
318.15 K, x1 = 0.1024	975.03	2.34
318.15 K, x1 = 0.2019	1091.46	3.684
318.15 K, x1 = 0.2973	1168.42	5.248
318.15 K, x1 = 0.4011	1228.78	7.433
318.15 K, x1 = 0.4988	1271.27	9.743
318.15 K, x1 = 0.5962	1304.24	12.24
318.15 K, x1 = 0.6997	1332.49	15.26
318.15 K, x1 = 0.7931	1353.72	18.28
318.15 K, x1 = 0.9014	1374.63	22.43
318.15 K, x1 = 1	1390.8	27.09
323.15 K, x1 = 0.1024	970.48	2.094
323.15 K, x1 = 0.2019	1086.71	3.283
323.15 K, x1 = 0.2973	1163.66	4.64
323.15 K, x1 = 0.4011	1223.97	6.437
323.15 K, x1 = 0.4988	1266.46	8.553
323.15 K, x1 = 0.5962	1299.4	10.7
323.15 K, x1 = 0.6997	1327.7	13.27
323.15 K, x1 = 0.7931	1348.94	15.77
323.15 K, x1 = 0.9014	1369.87	19.26
323.15 K, x1 = 1	1386.03	23.14
